What is called inhibition is the share of the control response that was lost under treatment.

SMILES strings stand for the structures. Where a name gives a salt, the structure may show the parent alone. Where a SMILES comes first, the peptide text is derived from it. [ ]: non-standard residue; d: D form. The star is where a group is joined. Phe(4-guanidino) = N=C(N)Nc1ccc(C[C@H](N)C(=O)O)cc1; Benzoyl(4-Ph) = O=C(c1ccc(-c2ccccc2)cc1)*; Palmitoyl = CCCCCCCCCCCCCCCC(=O)*; X2 = O=C(c1ccc(-c2cccs2)s1)*; hLys = NCCCCC[C@H](N)C(=O)O; β3hK = NCCCC[C@H](N)CC(=O)O; X1 = FC(F)(F)c1ccc(CN*)cc1; Pip = O=C(O)[C@@H]1CCCCN1; Octanoyl = CCCCCCCC(=O)*; NHOctyl = CCCCCCCCN*; Propionyl = CCC(=O)*; X3 = COc1cccc(CN*)c1; NHPr = CCCN* Where only a bound is given, the exact number is not on record here.

Drawing on patent publication US20250059231A1, “Protease inhibitors” (priority 2021, published 2025), this text covers inhibition for 40 compounds.

For one assay, the target named is T1, DENV protease (Dengue virus type 2, UniProt P29990).
T1 construct: The virus-encoded dengue protease comprises the amino-terminal 180 amino acids of NS3 (NS3pro) of the polyprotein
T1 sequence (P29990 1398-1437): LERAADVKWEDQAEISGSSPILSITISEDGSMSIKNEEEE
T1 sequence (P29990 1476-1653): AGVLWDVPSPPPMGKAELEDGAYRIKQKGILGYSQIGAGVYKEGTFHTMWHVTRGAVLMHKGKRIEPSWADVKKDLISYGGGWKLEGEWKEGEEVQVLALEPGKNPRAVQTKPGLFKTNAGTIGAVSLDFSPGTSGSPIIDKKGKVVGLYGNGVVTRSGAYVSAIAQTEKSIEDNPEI
The assay is described as follows: biochemical. The following applies: at 1 μM; read-out: inhibition of DENV. As for the experimental part:
Dilutions were made starting from 10 mM stock solutions in DMSO and final concentrations were measured in triplicates. The inhibitors were preincubated for 15 min with DENV protease (100 nM) in the assay buffer (50 mM Tris-HCl pH 9.0, ethylene glycol (10% v/v), and 0.0016% Brij 58). The enzymatic reaction was initiated by the addition of the FRET substrate (final concentration 50 μM) to obtain a final assay volume of 100 μL per well. The enzymatic activity was monitored for 15 min and determined as a slope of relative fluorescence units per second (RFU/s) for each concentration. The mean of the triplicates were plotted against the corresponding concentration in CDDVault to determine the IC50-values. Analogous procedures were used to determine the inhibitory potency on WNV (Kühl et al., J. Med. Chem. 2020, 63 (15): 8179-8197) and ZIKA protease (Nitsche et al., ACS Med. Chem. Lett. 2019 Feb. 14; 10 (2): 168-174). For selectivity screening of active candidates, similar biochemical assays with human serine proteases trypsin (Weigel et al., J. Med. Chem. 2015, 58 (19), 7719-7733.) and/or thrombin (Nitsche et al., J. Med. Chem. 2013, 56 (21), 8389-8403) were used.
As for `CCCCCCCCCCCCCCCC(=O)N[C@@H](CCCCN)C(=O)N[C@@H](C)C(=O)N[C@@H](C)C(=O)N[C@H](CCc1c[nH]cn1)C(N)=O` [compound 173], the inhibition at 1 µM was no less than 20%.

Staying with this assay, now noted: at 50 μM; read-out: inhibition of DENV.
With `CCCCCCCCCCCCCCCC(=O)N[C@@H](CCCCN)C(=O)N[C@@H](C)C(=O)N[C@@H](Cc1cnc[nH]1)C(N)=O` [compound 166] (Palmitoyl-Lys-Ala-His-NH2), the inhibition at 50 µM was no less than 25%. With `C[C@H](NC(=O)c1ccc(-c2ccccc2)cc1)C(=O)N[C@@H](CCCNC(=N)N)C(=O)N[C@@H](CCC(N)=O)C(=O)N[C@@H](CCCCN)C(N)=O` [compound 37] ({Benzoyl(4-Ph)}-ARQK-NH2), the inhibition at 50 µM is no less than 25%. As for `CCCCCCCCCCCCCCCC(=O)N[C@@H](CCCCN)C(=O)N[C@@H](C)C(=O)N[C@@H](C)C(=O)N[C@@H](C(N)=O)c1ccc(OCc2ccccc2)cc1` [compound 138], the inhibition at 50 µM was no less than 25%. For `CCCCCCCCCCCCCCCC(=O)N[C@@H](CCCCN)C(=O)N1CCC[C@H]1C(=O)N[C@@H](C)C(=O)N[C@@H](CCCCN)C(=O)O` [compound 126] (Palmitoyl-KPAK-OH), the inhibition at 50 µM is no less than 25%.

Regarding `CCCCCCCCCCCCCCCC(=O)N[C@@H](CCCCN)CC(=O)N[C@@H](C)C(=O)N[C@@H](C)C(=O)N[C@@H](CCCCN)C(N)=O` [compound 82] (Palmitoyl-[β3hK]AAK-NH2), the inhibition at 50 µM was no less than 25%. In the case of `CCCCCCCCCCCCCCCC(=O)N[C@@H](CCCCN)C(=O)N[C@@H](C)C(=O)N[C@@H](CCCCN)C(=O)O` [compound 188] (Palmitoyl-Lys-Ala-Lys-OH), the inhibition at 50 µM is no less than 25%. Turning to `CCCCCCCCCCCCCCCC(=O)N[C@@H](CCCCN)C(=O)N1CCCC[C@H]1C(=O)N[C@@H](C)C(=O)N[C@@H](CCCCN)C(N)=O` [compound 15] (Palmitoyl-K[Pip]AK-NH2), the inhibition at 50 µM is no less than 25%. As to `CCCCCCCCNC(=O)[C@H](CCCCN)NC(=O)[C@H](CCCNC(=N)N)NC(=O)[C@H](C)NC(=O)[C@H](CCCNC(=N)N)NC(=O)CCCCCCC` [compound 29] (Octanoyl-RARK-NHOctyl), the inhibition at 50 µM is no less than 25%.

Consider `C[C@H](NC(=O)[C@H](C)NC(=O)[C@H](CCCCN)NC(=O)c1ccc(-c2ccccc2)cc1)C(=O)N[C@@H](CCCCN)C(=O)NCc1ccc(C(F)(F)F)cc1` [compound 89] ({Benzoyl(4-Ph)}-KAAK-X1), for which the inhibition at 50 µM is no less than 25%. Take `CCCCCCCCCCCCCCCC(=O)N[C@@H](CCCCN)C(=O)N1CCC[C@H]1C(=O)N[C@@H](C)C(=O)N[C@@H](CCc1ccccc1)c1nnc(C)o1` [compound 4]: the inhibition at 50 µM was no less than 25%. As to `CCCCCCCCCCCCCCCC(=O)N[C@@H](CCc1c[nH]cn1)C(=O)N[C@@H](CCC(N)=O)C(=O)N[C@@H](Cc1ccccc1)C(N)=O` [compound 59], the inhibition at 50 µM was no less than 25%. In the case of `CCCNC(=O)[C@H](CCCCN)NC(=O)[C@H](CCCCN)NC(=O)[C@H](CCCCN)NC(=O)[C@H](Cc1ccccc1)NC(=O)CC` [compound 23] (Propionyl-FKKK-NHPr), the inhibition at 50 µM is no less than 25%. Still for that read-out and setting: as for `CCCCCCCCCCCCCCCC(=O)N[C@@H](C)C(=O)N[C@@H](C)C(=O)N[C@@H](CCCCN)C(=O)N[C@H](C)C(N)=O` [compound 149] (Palmitoyl-AAK[dA]-NH2), the figure is no less than 25%; as for `CCCCCCCCCCCCCCCC(=O)N[C@@H](CCCNc1ncc[nH]1)C(=O)N[C@@H](CCC(N)=O)C(=O)N[C@@H](Cc1ccccc1)C(N)=O` [compound 65], no less than 25%; as for `CCCCCCCCCCCCCCCC(=O)N[C@@H](Cc1ccc(NC(=N)N)cc1)C(=O)N[C@@H](CCC(N)=O)C(=O)N[C@@H](Cc1ccccc1)C(N)=O` [compound 68] (Palmitoyl-[Phe(4-guanidino)]-Gln-Phe-NH2), no less than 25%.

Turning to `CCCCCCCCCCCCCCCCNC(=O)[C@H](CCCCN)NC(=O)[C@H](C)NC(=O)[C@@H](N)CCCCN` [compound 98], the inhibition at 50 µM is no less than 25%. `CCCCCCCCCCCCCCCC(=O)N[C@@H](CCCCN)CCN1CCC[C@H]1CC(=O)N[C@@H](C)C(=O)N[C@@H](Cc1c[nH]c2ccccc12)C(N)=O` [compound 120]: the inhibition at 50 µM is no less than 25%.

In the case of `CCCCCCCCCCCCCCCC(=O)N[C@@H](CCCCN)CC(=O)N1CCC[C@H]1C(=O)N[C@@H](C)C(=O)N[C@H](CCCCN)C(N)=O` [compound 119] (Palmitoyl-[β3hK]PA[dK]-NH2), the inhibition at 50 µM was no less than 25%. Regarding `CCCCCCCCCCCCCCCC(=O)N[C@@H](CCCc1c[nH]c(N)n1)C(=O)N[C@@H](CCC(N)=O)C(=O)N[C@@H](Cc1ccccc1)C(N)=O` [compound 56], the inhibition at 50 µM was no less than 25%. The same measure, in the same setting: as for `CCCCCCCCCCCCCCCC(=O)N[C@@H](CCCCN)C(=O)N[C@@H](Cc1c[nH]cn1)C(N)=O` [compound 162], the figure is no less than 25%; as for `CCCCCCCCCCCCCCCC(=O)N[C@@H](CCCNC(=N)N)C(=O)N[C@@H](CCC(N)=O)C(=O)N[C@@H](Cc1ccccc1)C(=O)O` [compound 45] (Palmitoyl-Arg-Gln-Phe-OH), no less than 25%; as for `CCCCCCCCCCCCCCCC(=O)N[C@@H](CCCCN)C(=O)N[C@@H](CCCNC(=N)N)C(N)=O` [compound 111] (Palmitoyl-Lys-Arg-NH2), no less than 25%. In the case of `CCCCCCCCCCCCCCCC(=O)N[C@@H](CCCNC(=N)N)C(=O)N[C@@H](CCC(N)=O)C(=O)N[C@@H](CCCCN)C(=O)c1ccccc1` [compound 42], the inhibition at 50 µM was no less than 25%. In the case of `CCCCCCCCCCCCCCCC(=O)N[C@@H](CCCNC(=N)N)C(=O)N[C@@H](CCCNC(=N)N)C(N)=O` [compound 112] (Palmitoyl-Arg-Arg-NH2), the inhibition at 50 µM was no less than 25%.

For `CCCCCCCCCCCCCCCC(=O)N[C@@H](CCCCN)C(=O)N1CCC[C@H]1C(=O)N[C@@H](C)C(=O)N[C@@H](CCCCN)C(=O)NS(=O)(=O)C1CC1` [compound 127], the inhibition at 50 µM is no less than 25%. For `CCCCCCCCCCCCCCCC(=O)N[C@@H](CCCCCN)C(=O)N1CCC[C@H]1C(=O)N[C@@H](CCCCN)C(N)=O` [compound 121] (Palmitoyl-[hLys]-Pro-Lys-NH2), the inhibition at 50 µM is no less than 25%. Consider `CCCCCCCCCCCCCCCC(=O)N[C@@H](Cc1c[nH]c(N)n1)C(=O)N[C@@H](CCC(N)=O)C(=O)N[C@@H](Cc1ccccc1)C(N)=O` [compound 62], for which the inhibition at 50 µM was no less than 25%. As to `CCCCCCCCCCCCCCCC(=O)N[C@@H](CCCCN)C(=O)N[C@@H](C)C(=O)N[C@@H](C)C(=O)N[C@H](CCc1ccccc1)c1nnc(C)o1` [compound 3], the inhibition at 50 µM is no less than 25%. As to `CCCCCCCCCCCCCCCC(=O)N[C@@H](CCCCN)C(=O)N[C@@H](C)C(=O)N[C@@H](CCCCN)C(N)=O` [compound 97] (Palmitoyl-Lys-Ala-Lys-NH2), the inhibition at 50 µM is no less than 25%. Still for that read-out and setting: as for `CCCCCCCCCCCCCCCC(=O)N[C@@H](CCCCN)C(=O)N1CCCC[C@H]1C(=O)N[C@@H](Cc1cnc[nH]1)C(=O)N[C@@H](CCCCN)C(N)=O` [compound 14] (Palmitoyl-K[Pip]HK-NH2), the figure is no less than 25%. The same measure, in the same setting: the same measure for `CCCCCCCCCCCCCCCC(=O)N[C@@H](CCCCN)C(=O)N[C@@H](C)C(=O)N[C@@H](C)C(=O)N[C@@H](CCCCN)C(=O)N(C)C` [compound 187] (Palmitoyl-KAAK-NMe2): no less than 25%; for `COc1cccc(CNC(=O)[C@H](CCCCN)NC(=O)[C@H](CCC(N)=O)NC(=O)[C@H](CCCNC(=N)N)NC(=O)[C@H](C)NC(=O)c2ccc(-c3cccs3)s2)c1` [compound 36] (X2-ARQK-X3): no less than 25%. Take `CCCCCCCCCCCCCCCC(=O)N[C@@H](CCCCN)CC(=O)N[C@@H](C)C(=O)N[C@@H](C)CC(=O)N[C@H](CCc1ccccc1)C(N)=O` [compound 91]: the inhibition at 50 µM was no less than 25%. Take `CCCCCCCCCCCCCCCC(=O)N[C@@H](C)C(=O)N[C@@H](C)C(=O)N[C@@H](C)C(=O)N[C@H](CCCCN)C(N)=O` [compound 150] (Palmitoyl-AAA[dK]-NH2): the inhibition at 50 µM is no less than 25%. For the compound `CCCCCCCCCCCCCCCC(=O)N[C@@H](CCCCN)C(=O)N[C@@H](C)C(=O)N[C@@H](C)C(=O)N[C@H](CCc1c[nH]cn1)C(N)=O` [compound 173], the inhibition at 50 µM is no less than 25%. The same measure, in the same setting: the same measure for `CCCCCCCCCCCCCCCC(=O)N[C@@H](CCCCN)C(=O)N1CCC[C@H]1C(=O)N[C@@H](C)C(=O)N[C@H](C(N)=O)c1ccc(OCc2ccccc2)cc1` [compound 130]: no less than 25%; for `CCCCCCCCCCCCCCCC(=O)N[C@@H](CCCCN)C(=O)N[C@@H](C)C(=O)N[C@@H](CCCCN)C(=O)NS(=O)(=O)C1CC1` [compound 178]: no less than 25%. With `CCCCCCCCCCCCCCCC(=O)N[C@@H](CCCCN)C(=O)N[C@@H](C)C(=O)N[C@H](CCCCN)C(=O)NS(=O)(=O)C1CC1` [compound 179], the inhibition at 50 µM was no less than 25%. Same read-out and setting: as for `CCCCCCCCCCCCCCCC(=O)N[C@@H](CCCCN)C(=O)N[C@@H](C)C(=O)N1CCC[C@H]1C(=O)N[C@@H](CCCCN)C(N)=O` [compound 133] (Palmitoyl-KAPK-NH2), the figure is no less than 25%.

Staying with this assay, now noted: read-out: inhibition of DENV.
As for `CCCCCCCCCCCCCCCC(=O)N[C@@H](CCc1c[nH]c(N)n1)C(=O)N[C@@H](CCC(N)=O)C(=O)N[C@@H](Cc1ccccc1)C(N)=O` [compound 55, (S)—N1—((S)-1-amino-1-oxo-3-phenylpropan-2-yl)-2-((S)-4-(2-amino-1H-imidazol-4-yl)-2-palmitamidobutanamido)pentanediamide TFA salt], the inhibition at 50 µM was no less than 25%.
